The test system of assay [1] is human 1299 cells (NCI-H1299) cultured within rat decellularized biomatrices. The assay is described as follows: Cisplatin treatment of tissue constructs: tumor size and live cells. It is filed as cell-based. Conditions: 50 μM Cisplatin from day 4 of culture. On the procedure: A simplified, small, closed-system bioreactor was set up in an incubator for lung cell culture on the lung biomatrix (FIG. 1B). A custom-designed 500-mL glass bottle was used with three holes in the cap fitted with a female Luer thread-style panel (Cole-Parmer), one for the pulmonary artery cannula, one for the trachea cannula, and one for circulation of medium from the bottle. Medium was constantly circulated with the help of a Masterflex pump (Cole-Parmer) through a 10-foot length of silicone oxygenator tubing wrapped around a mesh of wire solenoid (Cole-Parmer). The medium was perfused through the pulmonary artery cannula into lungs at a flow rate of 6 mL/min. For controlled flow through the pulmonary artery, it was connected to a three-way stopcock (Smith Medical, Dublin, Ohio). The bottle was filled with 150 mL of complete medium or serum-free medium, which was circulated through the oxygenator tubing to prevent air bubbles. […] Treatment (Tx) with 50 μM Cisplatin was commenced at day 4 of culture, and treated tissue constructs and untreated controls were assessed and compared at days 4, 8, 11, and 14 of culture (FIGS. 11 and 12). […]

Assay [2] shares this test system. The assay is described as follows: Ki-67 and TUNEL staining of treated and untreated lung tissue constructs. It is filed as cell-based. Conditions: 50 μM Cisplatin from day 4 of culture; compared with untreated constructs (FIG. 14). An excerpt:
Lobes of same lungs were dissected at day 0 (day of seeding cancer cells onto biomatrix), day 3, day 7, and day 11 or day 14 (or both) in sterile conditions under the culture hood to see the progression of tumor growth. After lobectomy, lung tissues were placed in 70% ethanol and analyzed in the Pathology Core Laboratory at The Methodist Hospital Research Institute. Briefly, the tissues were fixed in 10% formalin overnight, processed, and embedded in paraffin. Embedded tissues were cut into […] slices and mounted on slides, and the paraffin was removed; antigen retrieval was performed with antigen unmasking solution (H-3300; Vector Laboratories, Burlingame, Calif.) in a steamer for 20 minutes. Slides were cooled for 20 minutes at room temperature, washed in PBS, and stained with hematoxylin and eosin, Movat Pentachrome (American MasterTech Scientific, Lodi, Calif.), elastin (VVG kit, Ventana Nexus, Tucson, Ariz.), and other markers following the standard protocol. Stained slides were examined by expert board-certified pathologists, and images were captured using a microscope (Olympus, Center Valley, Pa.). […] Treatment (Tx) with 50 μM Cisplatin was commenced at day 4 of culture, and treated tissue constructs and untreated controls were assessed and compared at days 4, 8, 11, and 14 of culture (FIGS. 11 and 12). […]

Assay [3] has the same test system. The assay is described as follows: Circulating cells in perfusion fluid of treated and untreated lung tissue constructs. It is filed as cell-based. Conditions: 50 μM Cisplatin from day 4 of culture, over the observed time period, untreated showed steady increase (FIG. 15). Here is the method: In some embodiments, the analyzing comprises determining the number of cells in the perfusion fluid used to perfuse a tissue construct as described herein. The number of cells in the perfusion fluid, also referred to as the number of circulating cells herein, can be used as an indicator for the metastatic properties of neoplastic cells cultured within the tissue construct. For example, in tissue constructs in which neoplastic cells are cultured within the interstitial space, and perfusion fluid is run through the vascular space, cells found in the perfusion fluid may stem from neoplastic cells that have migrated across the basement membrane separating the interstitial and the vascular space. Since the capability to migrate across the basement membrane and, thus, to enter into the blood stream, is a hallmark feature of metastasizing cancer cells, the ability to migrate across the basement membrane in a tissue construct is a biomarker useful for assessing metastatic capabilities of cells grown in tissue constructs provided herein. […] Treatment (Tx) with 50 μM Cisplatin was commenced at day 4 of culture, and treated tissue constructs and untreated controls were assessed and compared at days 4, 8, 11, and 14 of culture (FIGS. 11 and 12). […]

The test system of another assay is MMPs 1, 2, 7, 9, and 10. The assay is described as follows: MMP secretion into perfusion fluid of treated and untreated lung tissue constructs. It is filed as cell-based, human. Conditions: 50 μM Cisplatin from day 4 of culture. An excerpt: In some embodiments, the analyzing comprises an assessment of one or more molecules secreted into a perfusion fluid by the cells cultured within the tissue construct. For example, in a lung tissue construct, the analyzing may comprise detecting a protein, peptide, or nucleic acid in a perfusion fluid run through the pulmonary artery. In some embodiments, the secreted factor assessed is a secreted factor associated with cancer, or with a property of neoplastic cells, for example, with the metastatic capabilities of neoplastic cells. Secreted factors associated with cancer are known to those of skill in the art and include factors that are typically secreted by a tumor, such as growth factors and pro-angiogenic factors, as are factors associated with the metastatic capabilities of neoplastic cells. Metastasis-associated factors include, for example, matrix metalloproteases (MMPs, e.g., MMP-1, MMP-2, MMP-3, MMP-9, and MMP-10, as well as other MMPs). Tissue constructs were generated by culturing human 1299 cells, also known as NCI-H1299 or CRL-5803, a human non-small cell lung carcinoma cell line, within rat decellularized biomatrices. Treatment (Tx) with 50 μM Cisplatin was commenced at day 4 of culture, and treated tissue constructs and untreated controls were assessed and compared at days 4, 8, 11, and 14 of culture (FIGS. 11 and 12). […]

For the compound `N.N.[Cl][Pt][Cl]` [Cisplatin], the “percentage of live cells” value in assay [1] (compared with non-treated constructs (FIG. 13)) is recorded as “dramatically decreased”. Also, the Tumor size result in assay [1] (compared with untreated constructs, days 4, 8, 11, 14 (FIG. 13)) is recorded as “dramatically decreased”. In assay [2], the Ki-67 expression result is on record as “decreased in treated constructs” and the TUNEL staining result is listed as “widespread apoptotic processes”. The “number of circulating cells” value in assay [3] is “gradual decrease over the observed time period after initial rapid release of the circulating cells”. Further, the “Levels of the assessed MMPs at the end of the observation period” value in the assay on MMPs 1, 2, 7, 9, and 10 (end of the observation period (FIG. 16)) is on record as “no detectable levels”. Further, the “Levels of MMPs 1, 2, 7, 9, and 10 in perfusion fluid after start of treatment” value in the assay on MMPs 1, 2, 7, 9, and 10 (untreated gradually increased over time (FIG. 16)) is reported as “levels of all MMPs were diminished”.

These data come from patent US20130344490A1, “NEOPLASTIC CELLS GROWN ON DECELLULARIZED BIOMATRIX” (priority 2012, published 2013).
